From patent publication US10004723B2, “Aromatase inhibitor-releasing intravaginal device” (University of Saskatchewan, priority 2013, dated 2018)
Marks after values point to notes of the source that are not given here.

Experiments:
bovine granulosa cells = test: Inhibition of estradiol production in bovine granulosa cell culture; assay type: cell-based; conditions: for concentration of estradiol compared with negative control (no FSH stimulation): letrozole 20 and 2 ng/mL, anastrozole 200 and 20 ng/mL, FSH-stimulated cells
Protocol: Inhibition of estradiol production by two aromatase inhibitors (letrozole and anastrozole) and a benzimidazole (fenbendazole) was tested in vitro using a bovine granulosa cell culture.
The granulosa cell culture protocol has been described previously (Zamberlam, Portela et al., 2011). Briefly, bovine ovaries were obtained at a local abattoir and transported to the lab where granulosa cells of antral follicles were collected by rinsing the follicle wall with Dulbecco's Modified Eagle Medium Nutrient Mixture F-12 (DMEMIF12, Invitrogen Life Technologies, Burlington, ON, Canada). Granullosa cells were maintained in culture for 6 days at 37° C. in 5% CO2, in 700 uL of culture medium (Zamberlam, Portela et al., 2011) which was replaced every 2 days. Cells were maintained in culture from Days 0 to 2, followed by the addition of 1 ng/mL of FSH from Days 2 to 4. On Day 4, depending on the treatment group, the culture medium was supplemented with 1 ng/mL FSH plus the estrogen inhibitor of interest, with FSH alone (positive control) or no FSH (negative control). On Day 6, the culture medium was collected and total protein was measured by the Bradford method (Bio-Rad, Mississauga, ON, Canada). Estradiol levels were determined by radioimmunoassay and expressed as total pg of estradiol per ug of protein.
Three different levels of each compound were tested. The standard concentration used for letrozole was 20 ng/mL. […] The standard dose of fenbendazole was based on a reported maximum concentration 160 ng/mL fenbendazole in plasma after a single oral administration of 7.5 mg/kg of body weight in cattle (Sanyal, 1994). Low and high doses of each aromatase inhibitor were arbitrarily set at standard concentration× 1/10 and standard concentration×10, respectively (Table 1).

[1] = system: MCF-7 cancer cell preparations; conditions: reported (Kudoh 1996; Bhatnagar 2007), read-out: half maximal inhibitory concentration (IC50); cited from earlier work
[2] = single oral administration of 7.5 mg/kg of body weight in cattle (Sanyal, 1994); cited from earlier work
[3] = system: MCF-7 cancer cell preparations; test: Reported IC50 in MCF-7 cancer cell preparations; parameters: species or system human; conditions: based on the reported IC50 values
[4] = system: ovarian function in heifers; test: Example III: ovarian function and ovulation synchrony after letrozole device plus PGF and GnRH in heifers; assay type: in vivo, cattle; parameters: Degree of synchrony (residuals of the interval from GnRH to ovulation): unit not given here; conditions: for Dominant follicle diameter (mm) at day before ovulation: GnRH 24 h later, mean ± SEM; for Ovulation failure / Ovulation in relation to GnRH: Before / Ovulation in relation to GnRH: Synchronized: number of heifers
Source text: (§1) Heifers were examined daily by transrectal ultrasonography to determined the interval to ovulation, which served as control data for comparison with the synchronizing effect of subsequent aromatase inhibitor treatment in the same animals. One heifer was excluded for further use due to aggressive behaviour and handling difficulty. At the time of ovulation (Day 0), heifers were assigned randomly to five groups (n=8-10/group) and given an intravaginal device with a wax-based plus gel coat formulation containing 3 g of letrozole (as described in Example 1) for 4 days starting on Day 0, 4, 8, 12, or 16. At the time of device removal, heifers were given 500 μg PGF followed by 100 μg of GnRH 24 h later (FIG. 10).
Ultrasound examinations were performed daily from two days before device insertion to 9 days after post-treatment ovulation. Observations from ultrasound examinations were recorded on a sketch sheet in which each ovary and its structures (CL and follicles a 4 mm in diameter) were represented by size and location. Ovulation was defined as the disappearance of a […] between successive examinations after GnRH treatment, and was confirmed by the subsequent detection of a CL [20]. The time of follicular wave emergence was defined as the day of ovulation, or retrospectively as the day when the dominant follicle was first identified at a diameter of 4 to 5 mm. If the dominant follicle was not identified until it reached 6 or 7 mm, the previous day was considered day of wave emergence. The dominant follicle of a wave was defined as the largest antral follicle of the wave. The day of onset of follicular and luteal regression was defined as the first day of an apparent progressive decrease in follicular and luteal diameters, respectively.
Statistical analyses were done using the Statistical Analysis System software package (SAS Learning Edition 9.1, 2006; SAS Institute Inc., Cary, N.C., USA). Time-series hormone data and follicular diameter profiles were analyzed by analysis of variance for repeated measures using the PROC MIXED procedure to determine the effects of day of treatment (0, 4, 8, 12, and 16), time, and their interactions. Individual time-point comparisons among groups were compared using the least significant difference (LSD) test. Single-point measurements (dominant follicle diameter at device insertion, pre-ovulatory follicle diameter, CL diameter 9 days after the post-treatment ovulation and interval from GnRH treatment to ovulation) were analyzed by one-way analysis of variance. The proportion of heifers that ovulated were compared by Chi-Square test. The degree of synchrony among groups was compared by analysis of variance of the residuals of the interval from GnRH to ovulation. Significance was defined as P≤0.05.

plasma estradiol = test: Example III: plasma estradiol at device removal in heifers; assay type: in vivo, cattle
Source text: as §1, with “One heifer was excluded for further use due to aggressive behaviour and handling difficulty.” left out
Blood samples were collected by coccygeal venipuncture into 10 mL heparinized vacuum tubes (Becton Dickinson Vacutainer Systems, Franklin Lakes, N.J., USA). Samples were collected at the time of device removal for estradiol measurement, and at 3, 6 and 9 days following the post-treatment ovulation to determine progesterone concentrations: Additionally, blood samples were collected on Days 4, 8, 12, and 16 from heifers included in Group 16 (Day 0=ovulation) to serve as control data for comparison of estradiol concentrations at the time of device removal in other treatment groups (Groups 0, 4, 8, and 12). […] Blood samples were centrifuged at 1500×g for 20 min and plasma was separated and stored in plastic tubes at −20° C. until assayed.
Plasma concentrations of estradiol were determined using a commercial radioimmunoassay kit (Double Antibody Estradiol; Diagnostic Products, Los Angeles, Calif., USA). The procedure was carried out in the Department of Animal Health and Biomedical Sciences, University of Wisconsin-Madison, as described, with the following modifications: Standards (0.78-100 pg/mL) were prepared in steroid-free (charcoal-treated) bovine plasma. The standards (250 μL in duplicate) and plasma samples (500 μL in duplicate) were extracted with 3 mL of diethyl ether, frozen in a dry-ice/methanol bath, decanted into assay tubes, and dried overnight under a fume hood. The dried samples and standards were re-suspended with 100 μL of assay buffer (0.1% gelatin in PBS).

ovulation [5] = test: Induction of ovulation in women; assay type: in vivo, human; conditions: women treated at 18 mm follicle diameter
ovulation [6] = test: Inhibition of ovulation in cattle; assay type: in vivo; conditions: treatment during the pre-ovulatory wave in cattle
[7] = letrozole groups combined, letrozole device added to PGF-GnRH protocol

## CC(C)(C#N)c1cc(Cn2cncn2)cc(C(C)(C)C#N)c1 [Anastrozole, anastrozole]
Bovine granulosa cells
  dose at which estradiol synthesis was reduced to that of non-FSH-stimulated cells: 200 ng/mL
  concentration of estradiol compared with negative control (no FSH stimulation): did not differ from that of the negative control
[1]
  IC50: 820 pM

## COC(=O)Nc1nc2ccc(Sc3ccccc3)cc2[nH]1 [Fenbendazole, fenbendazole]
Bovine granulosa cells; at the levels tested
  reduction of estradiol secretion by FSH-stimulated granulosa cells: did not reduce estradiol secretion significantly
[2]
  maximum concentration in plasma: 160 ng/mL

## N#Cc1ccc(C(c2ccc(C#N)cc2)n2cncn2)cc1 [Letrozole, letrozole]
[3]
  potency relative to anastrozole: approximately 11 times
Bovine granulosa cells
  dose at which estradiol synthesis was reduced to that of non-FSH-stimulated cells: 20 ng/mL
  concentration of estradiol compared with negative control (no FSH stimulation): did not differ from that of the negative control
[4]; 3 g letrozole device 4 days from Day 0, PGF at removal
  Dominant follicle diameter (mm) at day before ovulation: 12.8 ± 0.58^a mm
[4]; 3 g letrozole device 4 days from Day 4, PGF at removal
  Dominant follicle diameter (mm) at day before ovulation: 16.4 ± 0.78^b mm
[4]; 3 g letrozole device 4 days from Day 8, PGF at removal
  Dominant follicle diameter (mm) at day before ovulation: 14.5 ± 0.83^ab mm
[4]; 3 g letrozole device 4 days from Day 12, PGF at removal
  Dominant follicle diameter (mm) at day before ovulation: 14.2 ± 0.48^ab mm
[4]; 3 g letrozole device 4 days from Day 16, PGF at removal
  Dominant follicle diameter (mm) at day before ovulation: 11.7 ± 0.59^a mm
[4]; 9 days post-letrozole treatment ovulation
  heifers with CL of normal diameter at last observation (percent): 62.5%
[4]; Letrozole groups combined
  Days from GnRH treatment to ovulation: 1.9 ± 0.08 days
  Degree of synchrony (residuals of the interval from GnRH to ovulation): 0.24 ± 0.07
  Ovulation failure (percent): 6%
  Ovulation in relation to GnRH: Before (percent): 12%
  Ovulation in relation to GnRH: Synchronized (percent): 81%
  Ovulation failure: 3
  Ovulation in relation to GnRH: Before: 6
  Ovulation in relation to GnRH: Synchronized: 39
[4]; by 9 days after ovulation
  heifers that underwent luteolysis prior to the last observation (percent): 37.5%
[4]; by 9 days after ovulation, number of 48 heifers
  heifers that underwent luteolysis prior to the last observation: 18
[4]; [7]
  Proportion that ovulated (heifers/treated): 42/48
  Proportion that ovulated (percent): 87.1%
[4]; treatment initiated on Day 0
  Ovulation failure: 0
  Ovulation in relation to GnRH: Before: 0
  Ovulation in relation to GnRH: Synchronized: 10
[4]; treatment initiated on Day 4
  Ovulation failure: 0
  Ovulation in relation to GnRH: Before: 3
  Ovulation in relation to GnRH: Synchronized: 7
[4]; treatment initiated on Day 8
  Ovulation failure: 1
  Ovulation in relation to GnRH: Before: 0
  Ovulation in relation to GnRH: Synchronized: 7
[4]; treatment initiated on Day 12
  Ovulation failure: 1
  Ovulation in relation to GnRH: Before: 0
  Ovulation in relation to GnRH: Synchronized: 10
[4]; treatment initiated on Day 16
  Ovulation failure: 1
  Ovulation in relation to GnRH: Before: 3
  Ovulation in relation to GnRH: Synchronized: 5
Plasma estradiol; Group 0 (P=0.02)
  estradiol concentrations at device removal compared to respective controls: lower
Plasma estradiol; Group 4 (P=0.05)
  estradiol concentrations at device removal compared to respective controls: lower
Plasma estradiol; Group 8 (P=0.1)
  estradiol concentrations at device removal compared to respective controls: tended to be lower
Plasma estradiol; Group 12 (P=0.9)
  estradiol concentrations at device removal compared to respective controls: not different from Day 12 controls
Plasma estradiol; all letrozole-treated groups
  estradiol concentration at device removal (average): 2.1 ± 0.24 pg/mL
Ovulation [5]
  ovulation earlier than controls: 24 h
Ovulation [6]
  delay of ovulation: 24 h
[1]
  IC50: 70 pM
